Measurements reported in patent publication US5494897A, “Endothelin antagonistic peptide” (Banyu Pharmaceutical Co., Ltd., priority 1993, dated 1996).
Numbered stars: 1 amine (or outer) side, 2 acyl side, 3 side chain; on linkers, the order of the positions; unused ones are H or OH. Square brackets hold non-standard residues; d marks the D form. Peptide text beside a SMILES is read from it. X1 = N#Cc1[nH]c2ccccc2c1C[C@@H](N[*:1])C(=O)[*:2]; dPen = CC(C)(S)[C@@H](N)C(=O)O

What was measured:
ETB receptor = biological target: T1, ETB receptor (Sus scrofa, UniProt P35463); test: Endothelin binding inhibition test (125I-endothelin-1, porcine cerebellum membrane); conditions: 1.1 μM test compound; porcine cerebellum membrane (ETB receptors)
T1 construct: ETB receptors of porcine cerebellum membrane suspension used in the present experiments; from tissue; host or cells: porcine cerebellum membrane preparation
T1 sequence (P35463 27-443): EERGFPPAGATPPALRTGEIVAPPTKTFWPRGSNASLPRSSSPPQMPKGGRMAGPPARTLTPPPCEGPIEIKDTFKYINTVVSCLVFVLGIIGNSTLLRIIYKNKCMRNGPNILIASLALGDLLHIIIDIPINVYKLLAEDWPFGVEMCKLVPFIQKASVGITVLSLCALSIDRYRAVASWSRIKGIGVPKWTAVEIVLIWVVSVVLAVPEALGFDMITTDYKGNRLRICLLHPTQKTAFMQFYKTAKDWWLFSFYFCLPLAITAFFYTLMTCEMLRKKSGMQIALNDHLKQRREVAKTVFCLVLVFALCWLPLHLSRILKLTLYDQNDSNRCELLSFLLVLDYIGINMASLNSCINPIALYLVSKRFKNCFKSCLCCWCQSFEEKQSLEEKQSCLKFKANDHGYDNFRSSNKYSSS
Method: The cerebellum of porcine was homogenized in a buffer solution of 10 mM MOPS, pH 7.4, at 4° C. by a polytron. To the homogenate, sucrose was added to a concentration of 20%, and the mixture was centrifuged at 1,000×g for 15 minutes, and the supernatant was further centrifuged at 10,000×g for 15 minutes. The supernatant thereof was further centrifuged at 90,000×g for 40 minutes. The membrane precipitate thereby obtained was suspended in a buffer solution of 5 mM HEPES/Tris, pH 7.4, at a concentration of 3.3 mg/ml. Then, 16 μl of this membrane suspension was added to 340 μl of 50 mM tris/HCl buffer, pH 7.4, containing […] calcium chloride, 10 μM magnesium chloride, 0.1 mM PMSF, 1 μM pepstatin A, 2 μM leupeptin, 1 mM 1,10-phenanthroline and 0.1% bovine serum albumin. […] These mixtures were incubated at 25° C. for 4 hours, then subjected to filtration on a glass filter GF/C and then washed with 5 mM HEPES/Tris, pH 7.4, containing 0.3% bovine serum albumin. […] [formula] Each test was performed in triplicate.
The test compounds are indicated by compound Nos.

ETA receptors = biological target: T2, ETA receptors (Sus scrofa, UniProt Q29010); test: 125I-ET-1 binding inhibition to porcine aorta membrane suspension; conditions: 1.1 μM; porcine aorta membrane suspension containing a large amount of ETA receptors
T2 construct: porcine aorta membrane suspension containing a large amount of ETA receptors; from tissue; host or cells: porcine aorta membrane suspension
T2 sequence (Q29010 21-427): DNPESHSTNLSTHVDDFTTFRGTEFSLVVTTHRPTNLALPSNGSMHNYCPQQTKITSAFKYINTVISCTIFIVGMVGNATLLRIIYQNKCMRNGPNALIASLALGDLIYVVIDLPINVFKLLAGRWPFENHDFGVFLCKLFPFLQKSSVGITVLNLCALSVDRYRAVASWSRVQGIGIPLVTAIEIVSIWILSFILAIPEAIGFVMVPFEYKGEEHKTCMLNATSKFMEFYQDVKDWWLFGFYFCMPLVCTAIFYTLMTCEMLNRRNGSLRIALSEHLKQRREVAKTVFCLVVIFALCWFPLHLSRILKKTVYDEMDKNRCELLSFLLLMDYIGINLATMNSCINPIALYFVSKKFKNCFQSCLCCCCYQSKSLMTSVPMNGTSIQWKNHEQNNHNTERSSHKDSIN

[1] = system: human Girardi heart cells; test: Inhibition of endothelin-1-induced increase in intracellular calcium concentration (fura-2); format: cell-based; conditions: for inhibition of ET-1-induced increase in intracellular calcium concentration: 1.1 μM compound given 5 minutes before 100 nM ET-1, fura-2-loaded cells; for effect on the intracellular calcium concentration itself: compound alone, fura-2-loaded human Girardi heart cells
Method: Inhibitory activities of test compounds against endothelin-1-induced increase in intracellular calcium concentration of human Girardi heart cells
Antagonism of test compounds to endothelin-1-induced increase in intracellular calcium concentration was evaluated in human Girardi heart cells (Dainippon Seiyaku Co., Ltd.).
Cultured human Girardi heart cells in Flask were harvested using 0.25% trypsin and 0.02% EDTA. The collected cells were washed with Dulbecco's modification eagle medium containing 20 mM Hepes and 0.3% BSA (pH 7.4, D medium). Then the cells were suspended in D medium and incubated with 2 μM of fura-2 acetoxymethyl ester at 37° C. for 30 minutes. The cell suspensions were diluted with a 10-fold volume of D medium and incubated for 20 minutes. The fura-2-loaded cells were collected by centrifugation and resuspended in Krebs-Henseleit Hepes buffer (pH 7.4). The resultant suspension in a cuvette was continuously stirred at 37° C. throughout the following measurement process. Each test compound or vehicle was given 5 minutes before the addition of 100 nM ET-1, and fluorescence intensity at emission wavelength of 510 nm and excitation wavelength of 340 and 380 nm was monitored with a JASCO CAF-100 spectrofluorometer (Japan), and [Ca^2+ ]i values were calculated according to the reported method (G. Grynkiewicz et al., J. Biol. Chem. 260, 3440-3450 (1985)).

inhibition at 1.1 µM (ETB receptor) [%]	Compound	further results
78	CC(C)C[C@@H]1NC(=O)[C@@H](C(C)C)NC(=O)[C@@H]2CCCN2C(=O)[C@@H](CC(=O)O)NC(=O)[C@@H](Cc2c(C#N)[nH]c3ccccc23)NC1=O [Compound 12] (cyclo(L[X1][dD]P[dV]))	
97	CSC(C)(C)[C@H]1NC(=O)[C@@H]2CCCN2C(=O)[C@@H](CC(=O)O)NC(=O)[C@@H](Cc2c(C#N)[nH]c3ccccc23)NC(=O)[C@H](CC(C)C)NC1=O [Compound 11] (cyclo(L[X1][dD]P[dPen](Me)))	inhibition of ET-1-induced increase in intracellular calcium concentration [1]: 69%; effect on the intracellular calcium concentration itself [1]: no effect

Continued, compound first:

Compound	inhibition at 1.1 µM (ETB receptor) [%]	further results
CCC[C@@H](NC(=O)[C@@H](Cc1c(C#N)[nH]c2ccccc12)NC(=O)[C@@H](NC(=O)N1C(C)CCCC1C)C1CCCC1)C(=O)NC (stereo partly drawn) [Compound 9]	100	
CCCC[C@@H](NC(=O)[C@@H](Cc1c(C#N)[nH]c2ccccc12)NC(=O)[C@H](CC(C)(C)C)NC(=O)N1C(C)CCCC1C)C(=O)O (stereo partly drawn) [Compound 4]	100	
cyclo(-DTrp-DCys(O3 Na)-Pro-DVal-Leu-) [compound 5, reference compound]		125I-endothelin-1 binding inhibition (ETB receptor): 0.6%; 125I-ET-1 binding inhibition (ETA receptors): 85%
CCC[C@@H](NC(=O)[C@@H](Cc1c(C#N)[nH]c2ccccc12)NC(=O)[C@@H](NC(=O)N1C(C)CCCC1C)C1CCCC1)C(=O)OC (stereo partly drawn) [Compound 7]	96	
CCCC[C@@H](NC(=O)[C@@H](Cc1c(C#N)[nH]c2ccccc12)NC(=O)[C@H](CC(C)(C)C)NC(=O)N1C(C)CCCC1C)C(=O)OC (stereo partly drawn) [Compound 3]	99	
CCCC[C@@H](NC(=O)[C@@H](Cc1c(C#N)[nH]c2ccccc12)NC(=O)[C@@H](NC(=O)N1C(C)CCCC1C)C(C)C)C(=O)O (stereo partly drawn) [Compound 1]	96	inhibition of ET-1-induced increase in intracellular calcium concentration [1]: 94%; effect on the intracellular calcium concentration itself [1]: no effect
COC(=O)C[C@H]1NC(=O)[C@@H](Cc2c(C#N)[nH]c3ccccc23)NC(=O)[C@H](CC(C)C)NC(=O)[C@@H](C(C)(C)SC)NC(=O)[C@@H]2CCCN2C1=O [Compound 10] (cyclo(L[X1][dD](OMe)P[dPen](Me)))	65	
cyclo(-DTrp-DAsp-Pro-DThg-Leu-) [compound 6, reference compound]		125I-endothelin-1 binding inhibition (ETB receptor): 11%; 125I-ET-1 binding inhibition (ETA receptors): 82%
CCCC[C@@H](NC(=O)[C@@H](Cc1c(C#N)[nH]c2ccccc12)NC(=O)[C@H](CC(C)C)NC(=O)N1C(C)CCCC1C)C(=O)O (stereo partly drawn) [Compound 2]	99	
CCC[C@@H](NC(=O)[C@@H](Cc1c(C#N)[nH]c2ccccc12)NC(=O)[C@@H](NC(=O)N1C(C)CCCC1C)C1CCCC1)C(=O)O (stereo partly drawn) [Compound 8]	96	
